According to patent publication US20200237773A1, “THERAPEUTIC COMBINATION OF A THIRD-GENERATION EGFR TYROSINE KINASE INHIBITOR AND A RAF INHIBITOR” (Novartis AG, priority 2017, published 2020):
Each block holds one compound with its values, some of them ahead of it.

Key:
[1] = system: EGFR mutant NSCLC cell lines HCC4006, HCC827, PC9, MGH707; assay: Long-term viability assay (confluence, 14 days); type: cell-based
Experimental: FIG. 2A and FIG. 2B: Dose response of Compound B (“Cmpd B”) in EGFR mutant NSCLC lines in combination with Compound A (EGF816) (“Cmpd A”) (300 nM) (FIG. 2A: HCC4006 and HCC827 cell lines. FIG. 2B: PC9 and MGH707 cell lines). Cells were treated with fresh drug and imaged for confluence measurement twice per week for two weeks. Cell confluence was used as a surrogate for cell number. It is shown that a Raf-inhibitor in combination with EGF816 slows drug-tolerant cell outgrowth.
Combinations of Compound A and Compound B were further examined in long-term drug combination growth assays. The same EGFR mutant NSCLC cell lines as were used in Example 1 above were treated with EGF816 alone or EGF816 in combination with Compound B across a 5-dose range for 14 days as follows.
PC9 (6000/well), HCC827 (4000/well), HCC4006 (5000/well), and MGH707 (5000/well) cells were plated into 96-well plates and the following day treated with EGF816 (300 nM) +either DMSO or a range of doses of either Compound B (0.03, 0.1, 0.3, 1 and 3 uM) for two weeks. Drug was refreshed twice per week. Cell confluence was used as a surrogate for cell number and was measured by an incucyte zoom at t=0, 4, 7, 10 and 14 days treatment.

wild-type (WT) EGFR [2] = biological target: T1, wild-type (WT) EGFR (Homo sapiens, UniProt P00533); details: cited from earlier work
T1 sequence (P00533 25-1210): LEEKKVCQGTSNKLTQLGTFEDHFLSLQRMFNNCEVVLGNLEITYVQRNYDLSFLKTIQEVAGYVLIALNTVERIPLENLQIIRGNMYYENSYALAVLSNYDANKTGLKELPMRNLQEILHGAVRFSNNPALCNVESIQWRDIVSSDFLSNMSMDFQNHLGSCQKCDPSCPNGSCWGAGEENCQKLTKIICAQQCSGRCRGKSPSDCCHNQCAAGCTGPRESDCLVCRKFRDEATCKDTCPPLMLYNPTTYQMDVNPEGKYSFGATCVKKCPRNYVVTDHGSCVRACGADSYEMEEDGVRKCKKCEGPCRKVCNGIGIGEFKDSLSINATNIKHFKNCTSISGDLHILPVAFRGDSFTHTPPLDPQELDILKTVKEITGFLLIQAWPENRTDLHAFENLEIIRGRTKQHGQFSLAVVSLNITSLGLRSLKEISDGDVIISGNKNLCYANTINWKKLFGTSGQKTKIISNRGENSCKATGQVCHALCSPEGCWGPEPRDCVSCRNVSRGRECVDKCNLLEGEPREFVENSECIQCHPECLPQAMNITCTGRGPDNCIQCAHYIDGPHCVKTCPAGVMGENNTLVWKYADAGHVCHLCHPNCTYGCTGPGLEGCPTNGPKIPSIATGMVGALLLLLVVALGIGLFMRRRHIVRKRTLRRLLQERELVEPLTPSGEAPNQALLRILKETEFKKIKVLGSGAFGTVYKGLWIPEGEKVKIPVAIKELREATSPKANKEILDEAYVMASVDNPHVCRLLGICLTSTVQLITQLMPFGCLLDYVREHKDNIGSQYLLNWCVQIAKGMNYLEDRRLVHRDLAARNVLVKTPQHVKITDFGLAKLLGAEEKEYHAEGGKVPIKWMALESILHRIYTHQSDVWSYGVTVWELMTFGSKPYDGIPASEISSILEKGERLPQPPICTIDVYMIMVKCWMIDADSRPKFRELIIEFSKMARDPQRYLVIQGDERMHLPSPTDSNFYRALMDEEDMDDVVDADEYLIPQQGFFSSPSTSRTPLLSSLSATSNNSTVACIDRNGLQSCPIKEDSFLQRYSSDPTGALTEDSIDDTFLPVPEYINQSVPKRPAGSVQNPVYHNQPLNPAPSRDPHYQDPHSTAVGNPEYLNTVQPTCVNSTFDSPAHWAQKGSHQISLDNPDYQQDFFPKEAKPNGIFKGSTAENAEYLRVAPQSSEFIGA

wild-type (WT) EGFR [3] = biological target: T1, wild-type (WT) EGFR; assay: Inhibition of wild-type EGFR by Compound A; details: at clinically relevant efficacious concentrations
[4] = system: advanced non-small cell lung cancer (NSCLC) harboring T790M; details: cited from earlier work
[5] = system: EGFR mutant (L858R, ex19del and T790M) cancer models; assay: EGFR mutant cancer models (in vitro and in vivo), Compound A
xenograft models = assay: Xenograft models, Compound A; type: in vivo
[6] = system: EGFR mutant NSCLC cell lines HCC4006, HCC827, PC9, MGH707; assay: Short-term viability assay (CellTiter-Glo, 5 days); type: cell-based
Experimental: FIG. 1A and FIG. 1B: Dose response curves in EGFR mutant NSCLC cell lines (FIG. 1A: HCC4006 and HCC827 cell lines. FIG. 1B: PC9 and MGH707 cell lines). for Compound B in the presence of DMSO (curves at the top of Figures) or 300nM EGF816 (“Cmpd A”-curves at the bottom of Figures). % Activity is a measure of cell number as read out by cell-titer glo. 0 represents the CTG value at Day 0 and 100 represents the value of untreated growth at day 5.
The potential efficacy of adding a MAPK pathway inhibitor such as Compound B to a third-generation EGFR tyrosine kinase inhibitor such as EGF816 in EGFR mutant NSCLC was assessed as follows. A panel of EGFR mutant NSCLC cell lines was treated with a fixed dose (300 nM) of
EGF816 (“Compound A”) or DMSO in combination with Compound B across a 10-dose range for 5 days.
PC9, HCC827, HCC4006, NCI-H1975 and MGH707 are all EGFR mutant NSCLC cell lines sensitive to EGF816. PC9, HCC827, HCC4006 and NCI-H1975 were obtained from the cancer cell line encyclopedia (CCLE) database. MGH707 were obtained from Massachusetts General Hospital. All cell lines were maintained in RMPI media supplemented with 10% fetal bovine serum.
Compound A (EGF816) and Compound B were all re-suspended in DMSO at a concentration of 10 mM for a stock solution and further diluted for the experiments as indicated.
The following EGFR mutant (EGFR mt) NSCLC cell lines were plated at the following densities: HCC827 (exon 19 deletion, or ex19del for short) (500/well), HCC4006 (ex19del) (500/well), PC9 (ex19del)(500/well), and MGH707 parental (1000/well) into white 384-well plates (#3707, Corning, Oneonta, N.Y., USA) and stored in an incubator overnight at 37° C., 95% relative humidity, and 5% CO2. Compounds were serial diluted (1:3 dilution) in DMSO in an acoustic plate (#P-05525, Labcyte, San Jose, Calif., USA) using a Biomek liquid handler (Beckman, Indianapolis, Ind., USA). Compound A was dispensed into the first row of a Labcyte P-05525 source plate. The compound plates were then used to deliver combinations to assay plates using an acoustic dispenser (Echo-555, Labcyte, San Jose, Calif., USA). Each dispense was 50 nL which achieved a 1:1000 dilution (ie. 50 nL dispense of a 10 mM compound becomes 10 uM in 50 uL of cell solution). The combination treatment included a second dispense of 50 nL of Compound A to achieve a final concentration of 0.3 uM. Upon completion of dosing each assay plate was returned to an incubator (37° C., 95% relative humidity, and 5% CO2). 25 uL/well of CellTiter-Glo One Solution cell viability reagent (#G8462, Promega, Madison, Wis., USA) was added to an untreated plate of each cell line using a bulk dispenser (EL406, Biotek, Winooski, Vt., USA) and after 20 minutes of incubation at room temperature, the plates were read on a microplate reader (Envision, Perkin Elmer, Hopkington, Mass., USA). […] After 5 days of incubation, the assay plates are read using the same CellTiter-Glo assay reagent and read on the Envision microplate reader.

[7] = system: EGFR activating and acquired resistance mutants (L858R, ex19del and T790M); details: cited from earlier work
EGFR-mutant NSCLC = assay: Previous study of EGF816 at 100 mg and 150 mg daily; type: in vivo, human; details: 100 mg daily compared with 150 mg daily
CYP3A4/5 = CYP3A4/5 inhibition; type: in vitro ADME
[8] = system: cell lines that have wild-type BRAF and RAS; assay: Anti-proliferative activity in wild-type BRAF and RAS cell lines; type: cell-based; details: Homo sapiens, read-out: IC50, inhibition of proliferation
[9] = Anti-proliferative activity in cancer cell lines with MAPK-activating mutations; type: cell-based; details: Homo sapiens; range over A-375, A-375 with BRAFi/MEKi resistance alleles, MEL-JUSO, IPC-298, Calu-6; read-out: IC50, inhibition of proliferation
[10] = system: Calu-6 (KRAS Q61K), NCI-H358 (KRAS G12C), Hey-A8 (KRAS G12D, BRAF G464E), SK-MEL-30 xenografts; assay: In vivo tumor xenografts, Compound B
456 kinases = assay: Kinase binding selectivity panel; details: out of 456 kinases tested
BRAF kinase = BRAF kinase (Homo sapiens, UniProt P15056); assay: BRAF kinase inhibition; type: biochemical
Chain of BRAF kinase (P15056 whole entry): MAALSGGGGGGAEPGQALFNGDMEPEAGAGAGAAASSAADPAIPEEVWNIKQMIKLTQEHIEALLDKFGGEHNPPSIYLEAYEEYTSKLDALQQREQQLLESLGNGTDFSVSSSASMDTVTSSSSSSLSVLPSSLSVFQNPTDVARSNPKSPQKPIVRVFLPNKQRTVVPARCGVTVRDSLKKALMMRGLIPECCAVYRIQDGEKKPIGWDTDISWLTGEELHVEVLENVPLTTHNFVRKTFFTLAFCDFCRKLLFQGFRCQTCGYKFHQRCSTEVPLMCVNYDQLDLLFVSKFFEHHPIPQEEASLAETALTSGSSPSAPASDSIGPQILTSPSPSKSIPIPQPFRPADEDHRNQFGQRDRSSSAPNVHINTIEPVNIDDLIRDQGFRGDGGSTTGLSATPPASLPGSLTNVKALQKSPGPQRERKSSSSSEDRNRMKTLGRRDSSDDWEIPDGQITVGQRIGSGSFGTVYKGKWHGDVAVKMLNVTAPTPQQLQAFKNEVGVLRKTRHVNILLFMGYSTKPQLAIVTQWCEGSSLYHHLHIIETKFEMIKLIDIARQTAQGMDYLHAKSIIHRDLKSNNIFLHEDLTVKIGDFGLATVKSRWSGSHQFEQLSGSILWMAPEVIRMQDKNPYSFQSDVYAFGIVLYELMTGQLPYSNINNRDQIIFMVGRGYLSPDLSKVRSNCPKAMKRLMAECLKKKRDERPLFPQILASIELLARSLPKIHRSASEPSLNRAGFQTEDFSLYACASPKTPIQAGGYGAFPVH

SMILES: Cc1cc(C(=O)Nc2nc3cccc(Cl)c3n2[C@@H]2CCCCN(C(=O)/C=C/CN(C)C)C2)ccn1 [Compound A, (R,E)-N-(7-chloro-1-(1-(4-(dimethylamino)but-2-enoyl)azepan-3-yl)-1H-benzo[d]imidazol-2-yl)-2-methylisonicotinamide]
sensitivity to single agent EGF816 ([1]; 300 nM EGF816 alone, PC9): more exquisitely sensitive
effect on wild-type EGFR (wild-type (WT) EGFR [2]): sparing
WT EGFR inhibition (wild-type (WT) EGFR [3]): no indication of WT EGFR inhibition
antitumor activity in patients [4]: durable antitumor activity
efficacy in EGFR mutant cancer models [5]: significant efficacy
tolerability / body weight (xenograft models; at efficacious doses): well tolerated with no body weight loss
anti-tumor efficacy (xenograft models; several xenograft models): Dose-dependent anti-tumor efficacy
cell growth (% Activity, cell-titer glo) ([6]; EGF816 alone 300 nM, 5 days, all cell lines): robust growth suppression
inhibition of EGFR mutants [7]: selectively inhibits
overall response rates (EGFR-mutant NSCLC): similar
rates of rash and diarrhoea (EGFR-mutant NSCLC): lower rates of rash and diarrhoea

CYP3A4/5 inhibition (CYP3A4/5): inhibitor of CYP3A4/5
IC50 [9]: 200 to 1200 nM
number of other kinases whose binding is inhibited to a similar degree (456 kinases): 2
IC50 (BRAF kinase): 0.73 nM
SMILES: Cc1ccc(NC(=O)c2ccnc(C(F)(F)F)c2)cc1-c1cc(OCCO)nc(N2CCOCC2)c1 [Compound B, N-(3-(2-(2-hydroxyethoxy)-6-morpholinopyridin-4-yl)-4-methylphenyl)-2-(trifluoromethyl)isonicotinamide]
residual outgrowth of EGFR mutant persister cells (cell confluence) ([1]; Compound B 0.03-3 uM with 300 nM EGF816, 14 days): markedly suppressed
response to the combination (cell confluence) ([1]; Compound B with 300 nM EGF816, 14 days, MGH707): most refractory
cell number (cell confluence) ([1]; Compound B with 300 nM EGF816, 14 days, PC9): more pronounced drop in cell number
IC50 [8]: > 20 µM
tumor response ([10]; KRAS-mutant Calu-6, NCI-H358, Hey-A8 and NRAS-mutant SK-MEL-30 xenografts): tumor regression
dose dependence of anti-tumor effects ([10]; in all cases): dose-dependent
tolerability / body weight ([10]; in all cases): well tolerated with minimal body weight loss
cell growth (% Activity, cell-titer glo) ([6]; Compound B added to 300 nM EGF816, 5 days, HCC4006, HCC827 and PC9): enhanced suppression of cell growth
cell growth (% Activity, cell-titer glo) ([6]; Compound B added to 300 nM EGF816, 5 days, MGH707): less effective
cell growth (% Activity, cell-titer glo) ([6]; Compound B single agent (DMSO), 5 days, all cell lines): suppressed
sensitization to Compound B by EGF816 ([6]; with 300 nM EGF816 compared to single agent, HCC4006, HCC827 and PC9): active at lower doses
